{"source": "PubChem BioAssay AID1963978", "about": "(Molecular Pharmacology Branch, DTP, NCI, 2024)", "system": "616215-338-R-J1-PDC spheroids with HUVEC/MSC, viability", "experiment": "Anticancer human tumor 616215-338-R-J1-PDC patient-derived colon adenocarcinoma cell line growth inhibition [PI3K]", "conditions": "for IC50: curve of first compound; for viability, T/C: stronger effect = lower value", "method_in_brief": "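High-throughput combination screen: PI3K inhibitors crossed with targeted small molecules on complex spheroids of tumor cells, HUVEC and MSCs at 37 degrees C, 5% CO2. Top concentration was at or near clinical Cmax (otherwise 10 microM), with half-log decrements.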", "data": [{"molecule": "CC1(C)CCC(Nc2ncc(C(F)(F)F)c(-c3c[nH]c4c(P(C)(C)=O)c(C#N)ccc34)n2)CN1", "note": "(centres undefined) + COc1c(OCCCN2CCOCC2)ccc2c3n(c(=NC(=O)c4cnc(N)nc4)nc12)CCN3;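 further: spheroids exposed to agents for seven days before the viability read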", "values": [{"measurement": "IC50", "setting": "second compound 0.00316 µM", "result": "< 0.0316", "unit": "µM"}, {"measurement": "IC50", "setting": "second compound 0.01 µM", "result": "< 0.0316", "unit": "µM"}, {"measurement": "IC50", "setting": "second compound 0.0316 µM", "result": "< 0.0316", "unit": "µM"}, {"measurement": "IC50", "setting": "second compound 0.1 µM", "result": 0.188, "unit": "µM"}, {"measurement": "IC50", "setting": "second compound 0.316 µM", "result": "< 0.0316", "unit": "µM"}, {"measurement": "IC50", "setting": "second compound 1 µM", "result": "< 0.0316", "unit": "µM"}, {"measurement": "viability, T/C", "setting": "second compound 0.00316 µM, first compound 0.0316 µM", "result": 47.5, "unit": "%"}, {"measurement": "viability, T/C", "setting": "second compound 0.00316 µM, first compound 0.1 µM", "result": 43.1, "unit": "%"}, {"measurement": "viability, T/C", "setting": "second compound 0.00316 µM, first compound 0.316 µM", "result": 31.6, "unit": "%"}, {"measurement": "viability, T/C", "setting": "second compound 0.00316 µM, first compound 1 µM", "result": 56.8, "unit": "%"}, {"measurement": "viability, T/C", "setting": "second compound 0.00316 µM, first compound 3.16 µM", "result": 48.9, "unit": "%"}, {"measurement": "viability, T/C", "setting": "second compound 0.00316 µM, first compound 10 µM", "result": 0.29, "unit": "%"}, {"measurement": "viability, T/C", "setting": "second compound 0.01 µM, first compound 0.0316 µM", "result": 40.2, "unit": "%"}, {"measurement": "viability, T/C", "setting": "second compound 0.01 µM, first compound 0.1 µM", "result": 29, "unit": "%"}, {"measurement": "viability, T/C", "setting": "second compound 0.01 µM, first compound 0.316 µM", "result": 38.7, "unit": "%"}, {"measurement": "viability, T/C", "setting": "second compound 0.01 µM, first compound 1 µM", "result": 72.4, "unit": "%"}, {"measurement": "viability, T/C", "setting": "second compound 0.01 µM, first compound 3.16 µM", "result": 44.5, "unit": "%"}, {"measurement": "viability, T/C", "setting": "second compound 0.01 µM, first compound 10 µM", "result": 0.67, "unit": "%"}, {"measurement": "viability, T/C", "setting": "second compound 0.0316 µM, first compound 0.0316 µM", "result": 34.5, "unit": "%"}, {"measurement": "viability, T/C", "setting": "second compound 0.0316 µM, first compound 0.1 µM", "result": 33.7, "unit": "%"}, {"measurement": "viability, T/C", "setting": "second compound 0.0316 µM, first compound 0.316 µM", "result": 41.5, "unit": "%"}, {"measurement": "viability, T/C", "setting": "second compound 0.0316 µM, first compound 1 µM", "result": 44.8, "unit": "%"}, {"measurement": "viability, T/C", "setting": "second compound 0.0316 µM, first compound 3.16 µM", "result": 37.4, "unit": "%"}, {"measurement": "viability, T/C", "setting": "second compound 0.0316 µM, first compound 10 µM", "result": 0.14, "unit": "%"}, {"measurement": "viability, T/C", "setting": "second compound 0.1 µM, first compound 0.0316 µM", "result": 63.7, "unit": "%"}, {"measurement": "viability, T/C", "setting": "second compound 0.1 µM, first compound 0.1 µM", "result": 43.8, "unit": "%"}, {"measurement": "viability, T/C", "setting": "second compound 0.1 µM, first compound 0.316 µM", "result": 47.6, "unit": "%"}, {"measurement": "viability, T/C", "setting": "second compound 0.1 µM, first compound 1 µM", "result": 41.6, "unit": "%"}, {"measurement": "viability, T/C", "setting": "second compound 0.1 µM, first compound 3.16 µM", "result": 21.4, "unit": "%"}, {"measurement": "viability, T/C", "setting": "second compound 0.1 µM, first compound 10 µM", "result": 0.09, "unit": "%"}, {"measurement": "viability, T/C", "setting": "second compound 0.316 µM, first compound 0.0316 µM", "result": 29.9, "unit": "%"}, {"measurement": "viability, T/C", "setting": "second compound 0.316 µM, first compound 0.1 µM", "result": 23.8, "unit": "%"}, {"measurement": "viability, T/C", "setting": "second compound 0.316 µM, first compound 0.316 µM", "result": 20.1, "unit": "%"}, {"measurement": "viability, T/C", "setting": "second compound 0.316 µM, first compound 1 µM", "result": 18.9, "unit": "%"}, {"measurement": "viability, T/C", "setting": "second compound 0.316 µM, first compound 3.16 µM", "result": 8.61, "unit": "%"}, {"measurement": "viability, T/C", "setting": "second compound 0.316 µM, first compound 10 µM", "result": 0.69, "unit": "%"}, {"measurement": "viability, T/C", "setting": "second compound 1 µM, first compound 0.0316 µM", "result": 20, "unit": "%"}, {"measurement": "viability, T/C", "setting": "second compound 1 µM, first compound 0.1 µM", "result": 19.6, "unit": "%"}, {"measurement": "viability, T/C", "setting": "second compound 1 µM, first compound 0.316 µM", "result": 14.9, "unit": "%"}, {"measurement": "viability, T/C", "setting": "second compound 1 µM, first compound 1 µM", "result": 16.1, "unit": "%"}, {"measurement": "viability, T/C", "setting": "second compound 1 µM, first compound 3.16 µM", "result": 8.67, "unit": "%"}, {"measurement": "viability, T/C", "setting": "second compound 1 µM, first compound 10 µM", "result": 0.24, "unit": "%"}]}, {"molecule": "Cn1cnc2c(F)c(Nc3ccc(Br)cc3Cl)c(C(=O)NOCCO)cc21", "note": "+ Cc1nc(NC(=O)N2CCCC2C(N)=O)sc1-c1ccnc(C(C)(C)C(F)(F)F)c1", "values": [{"measurement": "IC50", "setting": "second compound 0.0316 µM", "result": 1.01, "unit": "µM"}, {"measurement": "IC50", "setting": "second compound 0.1 µM", "result": 1.59, "unit": "µM"}, {"measurement": "IC50", "setting": "second compound 0.316 µM", "result": 1.11, "unit": "µM"}, {"measurement": "IC50", "setting": "second compound 1 µM", "result": 0.725, "unit": "µM"}, {"measurement": "IC50", "setting": "second compound 3.16 µM", "result": 0.423, "unit": "µM"}, {"measurement": "IC50", "setting": "second compound 10 µM", "result": 0.379, "unit": "µM"}, {"measurement": "viability, T/C", "setting": "second compound 0.0316 µM, first compound 0.00949 µM", "result": 107, "unit": "%"}, {"measurement": "viability, T/C", "setting": "second compound 0.0316 µM, first compound 0.03 µM", "result": 94.8, "unit": "%"}, {"measurement": "viability, T/C", "setting": "second compound 0.0316 µM, first compound 0.0949 µM", "result": 99.2, "unit": "%"}, {"measurement": "viability, T/C", "setting": "second compound 0.0316 µM, first compound 0.3 µM", "result": 79.9, "unit": "%"}, {"measurement": "viability, T/C", "setting": "second compound 0.0316 µM, first compound 0.949 µM", "result": 50.1, "unit": "%"}, {"measurement": "viability, T/C", "setting": "second compound 0.0316 µM, first compound 3 µM", "result": 44.3, "unit": "%"}, {"measurement": "viability, T/C", "setting": "second compound 0.1 µM, first compound 0.00949 µM", "result": 111, "unit": "%"}, {"measurement": "viability, T/C", "setting": "second compound 0.1 µM, first compound 0.03 µM", "result": 91.3, "unit": "%"}, {"measurement": "viability, T/C", "setting": "second compound 0.1 µM, first compound 0.0949 µM", "result": 98.2, "unit": "%"}, {"measurement": "viability, T/C", "setting": "second compound 0.1 µM, first compound 0.3 µM", "result": 91.8, "unit": "%"}, {"measurement": "viability, T/C", "setting": "second compound 0.1 µM, first compound 0.949 µM", "result": 55.3, "unit": "%"}, {"measurement": "viability, T/C", "setting": "second compound 0.1 µM, first compound 3 µM", "result": 43.4, "unit": "%"}, {"measurement": "viability, T/C", "setting": "second compound 0.316 µM, first compound 0.00949 µM", "result": 109, "unit": "%"}, {"measurement": "viability, T/C", "setting": "second compound 0.316 µM, first compound 0.03 µM", "result": 101, "unit": "%"}, {"measurement": "viability, T/C", "setting": "second compound 0.316 µM, first compound 0.0949 µM", "result": 77.4, "unit": "%"}, {"measurement": "viability, T/C", "setting": "second compound 0.316 µM, first compound 0.3 µM", "result": 73.1, "unit": "%"}, {"measurement": "viability, T/C", "setting": "second compound 0.316 µM, first compound 0.949 µM", "result": 50.1, "unit": "%"}, {"measurement": "viability, T/C", "setting": "second compound 0.316 µM, first compound 3 µM", "result": 36.9, "unit": "%"}, {"measurement": "viability, T/C", "setting": "second compound 1 µM, first compound 0.00949 µM", "result": 99.7, "unit": "%"}, {"measurement": "viability, T/C", "setting": "second compound 1 µM, first compound 0.03 µM", "result": 95.6, "unit": "%"}, {"measurement": "viability, T/C", "setting": "second compound 1 µM, first compound 0.0949 µM", "result": 83.4, "unit": "%"}, {"measurement": "viability, T/C", "setting": "second compound 1 µM, first compound 0.3 µM", "result": 75.8, "unit": "%"}, {"measurement": "viability, T/C", "setting": "second compound 1 µM, first compound 0.949 µM", "result": 39.2, "unit": "%"}, {"measurement": "viability, T/C", "setting": "second compound 1 µM, first compound 3 µM", "result": 36.5, "unit": "%"}, {"measurement": "viability, T/C", "setting": "second compound 3.16 µM, first compound 0.00949 µM", "result": 106, "unit": "%"}, {"measurement": "viability, T/C", "setting": "second compound 3.16 µM, first compound 0.03 µM", "result": 94.5, "unit": "%"}, {"measurement": "viability, T/C", "setting": "second compound 3.16 µM, first compound 0.0949 µM", "result": 79.3, "unit": "%"}, {"measurement": "viability, T/C", "setting": "second compound 3.16 µM, first compound 0.3 µM", "result": 55.4, "unit": "%"}, {"measurement": "viability, T/C", "setting": "second compound 3.16 µM, first compound 0.949 µM", "result": 36.4, "unit": "%"}, {"measurement": "viability, T/C", "setting": "second compound 3.16 µM, first compound 3 µM", "result": 26.2, "unit": "%"}, {"measurement": "viability, T/C", "setting": "second compound 10 µM, first compound 0.00949 µM", "result": 101, "unit": "%"}, {"measurement": "viability, T/C", "setting": "second compound 10 µM, first compound 0.03 µM", "result": 86.3, "unit": "%"}, {"measurement": "viability, T/C", "setting": "second compound 10 µM, first compound 0.0949 µM", "result": 94, "unit": "%"}, {"measurement": "viability, T/C", "setting": "second compound 10 µM, first compound 0.3 µM", "result": 54.1, "unit": "%"}, {"measurement": "viability, T/C", "setting": "second compound 10 µM, first compound 0.949 µM", "result": 21.9, "unit": "%"}, {"measurement": "viability, T/C", "setting": "second compound 10 µM, first compound 3 µM", "result": 1.33, "unit": "%"}]}]}
